Data published in patent US20120196899A1, “METHODS AND PRODUCTS FOR TREATING INFLAMMATION” (Rock Creek Pharmaceuticals, Inc., priority 2010, published 2012).
Several values for one entry are separate records, joined by “and”; a condition that tells them apart may be missing. Equal entries are not always repeated. Where two headings read alike, the source gives them in different places.

Assay: Plasma pharmacokinetics after oral multi-dose anatabine polacrilex
Type: in vivo, Sprague-Dawley rats
Conditions: for Cp,max(1): after dose 1, mean; for Cp,max(3): after dose 3, mean; for Cp,max(2): after dose 2, mean; for AUC(0-inf) / concentration at 270 min / concentration at 300 min / concentration at 475 min / concentration at 540 min / concentration at 600 min / concentration at 720 min / concentration at 30 min / concentration at 60 min / concentration at 235 min / half-life: Sprague-Dawley, rat, plasma; for AUC(0-inf) / half-life: po; for concentration at 270 min / concentration at 300 min / concentration at 475 min / concentration at 540 min / concentration at 600 min / concentration at 720 min / concentration at 30 min / concentration at 60 min / concentration at 235 min: oral, Avg. Conc. of anatabine in plasma, Male and Female
Procedure: This study consisted of two groups of 8 animals each, 4 males and 4 females.
Two formulations were prepared; one for each of the two treatment groups. The test compound was formulated for each treatment group just prior to the first dose administration and constantly stirred until dosing was completed (Table 37). Four aliquots of each dose level formulation were collected and stored at −80° C.
The animals were weighed prior to dosing and received three doses p.o. of test compound at a volume of 5 mL/kg. Blood was collected via the venus plexus (retro-orbital) into tubes containing (K2) EDTA. No more than 0.5 mL was collected per time point.
Plasma was separated as per package instructions for MICROTAINER® brand collection tubes (3 minutes, 2000×g). Plasma was decanted into microfuge tubes and stored at −80° C. Remaining test compound was placed at −80° C.
Sample preparation. Plasma samples were treated with three volumes of methanol containing internal standard at 1 μM (R,S)-Antabine-2,4,5,6-d4), incubated 10 min at 4° C., and centrifuged. The amount of the test agent in the supernatant was determined by LC/MS/MS.
Analysis. Samples were analyzed by LC/MS/MS using an Agilent 6410 mass spectrometer coupled with an Agilent 1200 high pressure liquid chromatography (HPLC) and a CTC PAL chilled autosampler, all controlled by MassHunter software (Agilent). After separation on a Hydrophilic interaction liquid chromatography (HILIC) HPLC column (Sepax) using an acetonitrile-ammonium acetate/acetic acid gradient system, peaks were analyzed by mass spectrometry (MS) using ESI ionization in multiple reaction monitoring (MRM) mode. MassHunter software was used to calculate the concentration of the test compounds in samples from the peak area using the appropriate calibration curves.
Calibration samples. Calibration curves were determined in rat plasma. Calibration samples were prepared by diluting a 50× stock solution of the test compound in PBS with blank matrix to the appropriate concentration and these samples were prepared as described above in the sample preparation.
Data Analysis. Descriptive statistics were calculated for all pharmacokinetic parameters. Elimination half-lives (t1/2) were calculated by linear regression of logarithmically transformed plasma concentration data for each period between doses and following the final dose.
Total areas under the plasma concentration curves (AUC) and under the first moment curves (AUMC) were calculated using linear trapezoidal summation across all concentration time points as well as for intervals between each dose administration and following the final dose. […] Mean absorption times (MAT) were calculated according to the following relation: […]
where MRT represents the mean residence time. This was calculated from the mean residence times.
The statistical comparison of parameters between male and female animals was made using a two-tailed, unpaired, t-test with a 95 percent confidence interval. Repeated-measures analysis of variance (ANOVA) was used for multiple comparisons of Cp, max involving successive determinations on the same group of animals.

[1] = 0.6 mg/kg, male and female combined, mean
[2] = 6.0 mg/kg, male and female combined, mean
[3] = all data combined (overall), mean
[4] = both dose levels and genders combined, anatabine polacrilex p.o.
[5] = both treatment groups combined, female rats, mean
[6] = both treatment groups combined, male rats, mean

## C1=CCC(c2cccnc2)NC1 (racemic) [Anatabine, 1,2,3,6-tetrahydro-[2,3′]bipyridinyl]
0.6 mg/kg BW group, first value of male versus female comparison
  Cp,min(2): 15.3 ± 5.5 ng/mL
0.6 mg/kg BW group, second value of male versus female comparison
  Cp,min(2): 7.5 ± 1.7 ng/mL
0.6 mg/kg, female rats
  Cp,max(1): 38.3 ng/mL
0.6 mg/kg, female rats, mean
  Cp,min(1): 10.3 ng/mL
  Cp,min(2): 7.5 ng/mL
  MAT0→4 (mean absorption time): 0.53 h
  MTT0→4 (mean transit time): 2.98 h
  AUC(0-inf): 290 ng·h/mL
[1]
  AUC0→∞: 285 ng·h/mL
  MAT0→4: 0.61 h
  MTT0→4: 3.06 h
0.6 mg/kg, male rats
  Cp,max(1): 34.3 ng/mL
  Cp,max(3): 37.3 ng/mL
0.6 mg/kg, male rats, mean
  Cp,min(1): 11.0 ng/mL
  Cp,min(2): 15.3 ng/mL
  MAT0→4 (mean absorption time): 0.71 h
  MTT0→4 (mean transit time): 3.17 h
  AUC(0-inf): 280 ng·h/mL
6.0 mg/kg BW group, first value of male versus female comparison
  Cp,min(2): 93 ± 16 ng/mL
6.0 mg/kg, female rats
  Cp,max(1): 260 ng/mL and 259.8 ng/mL
  Cp,max(2): 312 ng/mL and 312.0 ng/mL
  Cp,max(3): 375 ng/mL and 374.8 ng/mL
6.0 mg/kg, female rats, mean
  Cp,min(1): 52 ng/mL and 51.5 ng/mL
  Cp,min(2): 180 ng/mL and 180.0 ng/mL
  MAT0→4 (mean absorption time): 0.30 h
  MTT0→4 (mean transit time): 2.76 h
  AUC(0-inf): 3740 ng·h/mL
[2]
  AUC0→∞: 3496 ng·h/mL
  MAT0→4: 0.52 h
  MTT0→4: 2.97 h
6.0 mg/kg, male rats
  Cp,max(1): 287 ng/mL
  Cp,max(2): 305 ng/mL
6.0 mg/kg, male rats, mean
  Cp,min(1): 75 ng/mL
  Cp,min(2): 93 ng/mL
  MAT0→4 (mean absorption time): 0.73 h
  MTT0→4 (mean transit time): 3.18 h
  AUC(0-inf): 3260 ng·h/mL
[3]
  MAT0→4: 0.56 h
  MTT0→4: 3.01 h
[4]
  mean absorption time (MAT0→4): 0.56 ± 1.25 h
  mean transit time (MTT0→4): 3.01 ± 1.25 h
Both sexes, 0.2 mg/kg BW, dose group 0.2, combined male and female, 270 min
  concentration at 270 min: 26 ng/mL
Both sexes, 0.2 mg/kg BW, dose group 0.2, combined male and female, 300 min
  concentration at 300 min: 27 ng/mL
Both sexes, 0.2 mg/kg BW, dose group 0.2, combined male and female, 475 min
  concentration at 475 min: 11 ng/mL
Both sexes, 0.2 mg/kg BW, dose group 0.2, combined male and female, 540 min
  concentration at 540 min: 30 ng/mL
Both sexes, 0.2 mg/kg BW, dose group 0.2, combined male and female, 600 min
  concentration at 600 min: 26 ng/mL
Both sexes, 0.2 mg/kg BW, dose group 0.2, combined male and female, 720 min
  concentration at 720 min: 13 ng/mL
Both sexes, 0.2 mg/kg, dose group 0.2, combined male and female, 30 min
  concentration at 30 min: 36 ng/mL
Both sexes, 0.2 mg/kg, dose group 0.2, combined male and female, 60 min
  concentration at 60 min: 31 ng/mL
Both sexes, 0.2 mg/kg, dose group 0.2, combined male and female, 235 min
  concentration at 235 min: 10 ng/mL
Both sexes, 2 mg/kg BW, dose group 2, combined male and female, 30 min
  concentration at 30 min: 201 ng/mL
Both sexes, 2 mg/kg BW, dose group 2, combined male and female, 60 min
  concentration at 60 min: 139 ng/mL
Both sexes, 2 mg/kg BW, dose group 2, combined male and female, 235 min
  concentration at 235 min: 63 ng/mL
Both sexes, 2 mg/kg BW, dose group 2, combined male and female, 270 min
  concentration at 270 min: 278 ng/mL
Both sexes, 2 mg/kg BW, dose group 2, combined male and female, 300 min
  concentration at 300 min: 222 ng/mL
Both sexes, 2 mg/kg BW, dose group 2, combined male and female, 475 min
  concentration at 475 min: 136 ng/mL
Both sexes, 2 mg/kg BW, dose group 2, combined male and female, 540 min
  concentration at 540 min: 286 ng/mL
Both sexes, 2 mg/kg BW, dose group 2, combined male and female, 600 min
  concentration at 600 min: 237 ng/mL
Both sexes, 2 mg/kg BW, dose group 2, combined male and female, 720 min
  concentration at 720 min: 194 ng/mL
Both sexes, 0.6 mg/kg, 0.6 mg/kg BW total p.o., after final dose, males and females combined, read-out: t1/2, terminal (converted)
  half-life: 1.79 ± 0.64 h
Both sexes, 0.6 mg/kg, male and female combined, mean, read-out: t1/2,0→4 (converted)
  half-life: 2.05 h
Both sexes, 0.6 mg/kg, male and female combined, mean, read-out: t1/2,terminal (converted)
  half-life: 1.79 h
Both sexes, 6 mg/kg, 6.0 mg/kg BW total p.o., after final dose, males and females combined, read-out: t1/2, terminal (converted)
  half-life: 4.53 ± 1.77 h
Both sexes, 6 mg/kg, male and female combined, mean, read-out: t1/2,0→4 (converted)
  half-life: 1.79 h
Both sexes, 6 mg/kg, male and female combined, mean, read-out: t1/2,terminal (converted)
  half-life: 4.53 h
Both sexes, all data combined (overall), mean, read-out: t1/2,0→4 (converted)
  half-life: 1.93 h
Both sexes, both dose levels and genders combined, anatabine polacrilex p.o., read-out: elimination half-life following the first oral dose (t1/2, 0→4) (converted)
  half-life: 1.93 ± 0.73 h
Both sexes, 0.6 mg/kg BW total p.o., males and females combined
  AUC(0-inf): 285 ± 77 ng·h/mL
Both sexes, 6.0 mg/kg BW total p.o., males and females combined
  AUC(0-inf): 3500 ± 559 ng·h/mL
[5]
  MAT0→4: 0.42 h
  MTT0→4: 2.87 h
[6]
  MAT0→4: 0.72 h
  MTT0→4: 3.18 h
Dose 0.2 mg/kg, female, […], individual animals 2A-2D
  Anatabine Concentration in rat plasma: <LOQ
Dose 0.2 mg/kg, male, 30 min, individual animals 1A-1D
  Anatabine Concentration in rat plasma: <LOQ
Dose 0.2 mg/kg, male, 60 min, individual animals 1A-1D
  Anatabine Concentration in rat plasma: 34 ng/mL
Dose 0.2 mg/kg, male, 235 min, individual animals 1A-1D
  Anatabine Concentration in rat plasma: <LOQ and 13 ng/mL
Dose 0.2 mg/kg, male, 270 min, individual animals 1A-1D
  Anatabine Concentration in rat plasma: 31 ng/mL and 20 ng/mL
Dose 0.2 mg/kg, male, 300 min, individual animals 1A-1D
  Anatabine Concentration in rat plasma: 26 ng/mL and 29 ng/mL
Dose 0.2 mg/kg, male, 475 min, individual animals 1A-1D
  Anatabine Concentration in rat plasma: 9 ng/mL and <LOQ and 18 ng/mL
Dose 0.2 mg/kg, male, 540 min, individual animals 1A-1D
  Anatabine Concentration in rat plasma: 4 ng/mL and 28 ng/mL and 41 ng/mL
Dose 0.2 mg/kg, male, 600 min, individual animals 1A-1D
  Anatabine Concentration in rat plasma: <LOQ and 17 ng/mL and 35 ng/mL
Dose 0.2 mg/kg, male, 720 min, individual animals 1A-1D
  Anatabine Concentration in rat plasma: <LOQ and 5 ng/mL and 12 ng/mL
Dose 0.2 mg/kg, male, […], individual animals 1A-1D
  Anatabine Concentration in rat plasma: <LOQ
Dose 2 mg/kg, female, 30 min, individual animals 4A-4D
  Anatabine Concentration in rat plasma: 78 ng/mL and 218 ng/mL and 98 ng/mL
Dose 2 mg/kg, female, 60 min, individual animals 4A-4D
  Anatabine Concentration in rat plasma: 81 ng/mL and 95 ng/mL and 165 ng/mL
Dose 2 mg/kg, female, 235 min, individual animals 4A-4D
  Anatabine Concentration in rat plasma: 75 ng/mL and 36 ng/mL and 23 ng/mL and 72 ng/mL
